Measured values from patent US20080027075A1, “Quaternary Amino-Function Chalcones” (Lica Pharmaceuticals A/S, priority 2003, published 2008).
In brackets after ≈: the same amount, converted by molar mass. Entries after “also recorded” stand apart in the source; their conditions may differ.

Key:
[1] = test system: Staphylococcus aureus ATCC29213; experiment: MIC determination in broth microdilution assay; type: cell-based; details: A: Staphylococcus aureus ATCC29213; MH-broth microdilution
[2] = test system: Staphylococcus intermedius #2357 (clinical isolate from the Copenhagen area); experiment: MIC determination in broth microdilution assay; type: cell-based; details: C: Staphylococcus intermedius #2357 clinical isolate; MH-broth microdilution
[3] = test system: Enterococcus faecalis ATCC29212; experiment: MIC determination in broth microdilution assay; type: cell-based; details: D: Enterococcus faecalis ATCC29212; MH-broth microdilution
[4] = test system: Enterococcus faecium #17501 (vancomycin-resistant clinical isolate); experiment: MIC determination in broth microdilution assay; type: cell-based; details: E: Enterococcus faecium #17501 vancomycin-resistant clinical isolate; MH-broth microdilution
[5] = test system: Streptococcus pneumoniae #998 (clinical isolate); experiment: MIC determination in broth microdilution assay; type: cell-based; details: F: Streptococcus pneumoniae #998 clinical isolate; MH-broth microdilution
[6] = test system: Staphylococcus aureus ATCC33591 (resistant to methicillin); experiment: MIC determination in broth microdilution assay; type: cell-based; details: B: Staphylococcus aureus ATCC33591 (resistant to methicillin); MH-broth microdilution
[7] = test system: Eschericia coli ATCC25922; experiment: MIC determination in broth microdilution assay; type: cell-based; details: for MIC: G: Eschericia coli ATCC25922, MH-broth microdilution; for activity against Eschericia coli (in words): Gram-negative prototype, Table 1
S. aureus E2371 = experiment: Killing curve determination (time-kill curve); type: cell-based, Staphylococcus aureus; details: for bactericidal activity (CFU counts per ml in time-kill curve): concentrations above the MIC; for dependence of the bactericidal action: time-kill curve
[8] = test system: panel of six strains Helicobacter pylori, includes strains resistant to metronidazole; experiment: MIC determination against Helicobacter pylori (agar dilution); details: 72 h, read-out: MICs against Helicobacter pylori
[9] = test system: panel of 10 different non-fastidious bacteria growing aerobically; experiment: Activity against non-fastidious bacteria (panel, discussed in words); type: cell-based; details: for activity against pathogenic Gram-positive bacteria (in words): Gram-positive non-fastidious bacteria, comparison with Licochalcone A
[10] = MIC of D-001 quoted in the pharmacokinetic profile (strain not named); type: cell-based
[11] = Pharmacokinetic studies, intravenous, mice; type: in vivo, female NMRI mice
Description: Evaluation of the pharmacokinetic properties of the compounds was done using female NMRI mice (weighing app. 30 g). Test articles were administrated intravenously and Samples of serum were taken at defined time-points. Standards and QC-samples in plasma were prepared and the serum concentrations of the test compounds quantified by HPLC-MS. Prior to analysis, proteins were precipitated by deluding the samples (1:1) (v/v) with 100% acetonitrile followed by centrifugation at 14,000 rpm in 10 min. The supernatant was used for the analysis. A Waters Alliance HPLC-system (Milford, Mass., USA) was coupled to a Quatro Micro triple quadropl mass spectrometer (Micromass, Manchester, UK) operating in positive (ESI) mode. Separation was performed on a XTerra MS C18 column (150*2.1 mm I.D., 3,5 μm particle size) (Waters Milford, Mass., USA). Mobile phase A: 0.1% (v/v) formic acid or 10 mM ammonium acetate pH-adjusted to 9.5 in MilliQ-water, mobile phase B: 100% methanol. The gradient was as follows: 0 min=70% A-30% B, 0-10 min. a linear gradient to 10% A and 90% B this was maintained till 11 min, 11-13 linear gradient to 70% A and 30% B this was maintained till 18 min. The flow rate was 0.20 ml/min, injection volume 10 μl.

[12] = test system: panel of anaerobic bacteria (Bacteroides fragilis, Clostridium perfringens, Clostridium difficele); type: cell-based; details: single concentration of compound (100 μM); agar dilution
S. aureus ATCC29213 = experiment: Killing curve determination (time-kill curve); type: cell-based, Staphylococcus aureus; details: for bactericidal activity (CFU counts per ml in time-kill curve): concentrations above the MIC; for dependence of the bactericidal action: time-kill curve

SMILES | MIC [1] | MIC [2] | MIC [3] | MIC [4] | MIC [5] | MIC [6] | MIC [7] | bactericidal activity (CFU counts per ml in time-kill curve) (S. aureus E2371) | dependence of the bactericidal action (S. aureus E2371) | MIC [8] | activity against pathogenic Gram-positive bacteria (in words) [9] | MIC [10] | Cmax ([11]; female, NMRI, mouse, serum, iv, single i.v. dose of 5 mg/ml) | volume of distribution ([11]; i.v., as indicated by the plasma concentration) | activity against anaerobic bacteria [12] | antibacterial effect (in words) ([9]; whole panel of non-fastidious bacteria) | bactericidal activity (CFU counts per ml in time-kill curve) (S. aureus ATCC29213) | dependence of the bactericidal action (S. aureus ATCC29213) | activity against Eschericia coli (in words) [7]
COc1ccc(C(=O)/C=C/c2cc(-c3ccccc3OC)ccc2N2CCN(C)CC2)c(F)c1 [SM010, (E)-1-(2-Fluoro-4-methoxy-phenyl)-3-[2′-methoxy-4-(4-methyl-piperazin-1-yl)-biphenyl-3-yl]-propenone] | 4.7 µM (≈ 2.16 µg/mL) | 9.4 µM (≈ 4.33 µg/mL) | 18.8 µM (≈ 8.66 µg/mL) | 9.4 µM (≈ 4.33 µg/mL) | 37.5 µM (≈ 17.3 µg/mL) | 9.4 µM (≈ 4.33 µg/mL) |  |  |  |  |  |  |  |  |  |  |  |  | 
COc1ccc(C(=O)/C=C/c2cc(-c3cc(C)cc(C)c3)ccc2OCCN(C)C)c(Cl)c1 [SM007, (E)-1-(2-Chloro-4-methoxy-phenyl)-3-[4-(2-dimethylamino-ethoxy)-3′,5′-dimethyl-biphenyl-3-yl]-propenone] | 4.7 µM (≈ 2.18 µg/mL) | 4.7 µM (≈ 2.18 µg/mL) | 9.4 µM (≈ 4.36 µg/mL) | 4.7 µM (≈ 2.18 µg/mL) | 18.8 µM (≈ 8.72 µg/mL) | 4.7 µM (≈ 2.18 µg/mL) |  |  |  |  |  |  |  |  |  |  |  |  | 
Cc1cc(C)cc(-c2ccc(OCC[N+](C)(C)C)c(/C=C/C(=O)c3ccc(N)cc3)c2)c1 [D-002, (2-{3-[3-(4-Amino-phenyl)-3-oxo-propenyl]-3′,5′-dimethyl-biphenyl-4-yloxy}-ethyl)-trimethyl-ammonium; iodide] | 9.4 µM | 9.4 µM | 18.8 µM | 18.8 µM | 18.8 µM | 9.4 µM | 75 µM |  |  |  |  |  |  |  |  |  |  |  | 
COc1ccc(C(=O)/C=C/c2cc(-c3ccccc3OC)ccc2N2CC[N+](C)(C)CC2)c(F)c1 [D-004, 4-{3-[3-(2-Fluoro-4-methoxy-phenyl)-3-oxo-propenyl]-2′-methoxy-biphenyl-4-yl}-1,1-dimethyl-piperazin-1-ium] | 18.8 µM | 9.4 µM | 18.8 µM | 18.8 µM | 37.5 µM | 9.4 µM | 75 µM |  |  |  |  |  |  |  |  |  |  |  | 
C[N+](C)(C)CCOc1ccc(-c2ccccc2)cc1/C=C/C(=O)c1cccc(C[N+](C)(C)C)c1.[I-].[I-] [D-006] | 18.8 µM | 18.8 µM | 75 µM | 37.5 µM | 150 µM | 18.8 µM |  | bactericidal | primarily dependent on the concentration of the test compound |  |  |  |  |  |  |  |  |  | 
COc1ccc(C(=O)/C=C/c2cc(-c3cc(C)cc(C)c3)ccc2OCC[N+](C)(C)C)c(Cl)c1.[I-] [D-001, (2-{3-[3-(2-Chloro-4-methoxy-phenyl)-3-oxo-propenyl]-3′,5′-dimethyl-biphenyl-4-yloxy}-ethyl)-trimethyl-ammonium; iodide] | 2.4 µM | 2.4 µM | 4.7 µM | 4.7 µM | 18.8 µM | 4.7 µM | 37.5 µM |  |  | 50 to 100 µM | increased potency | approximately 1 μg/mi | 126 µg/mL | very low | activity against all microorganisms within the test panel |  |  |  | 
Cc1cc(C)cc(-c2ccc(OCCN(C)C)c(/C=C/C(=O)c3ccc(N)cc3)c2)c1 [SM008, (E)-1-(4-Amino-phenyl)-3-[4-(2-dimethylamino-ethoxy)-3′,5′-dimethyl-biphenyl-3-yl]-propenone] | 9.4 µM (≈ 3.9 µg/mL) | 9.4 µM (≈ 3.9 µg/mL) | 18.8 µM (≈ 7.79 µg/mL) | 9.4 µM (≈ 3.9 µg/mL) | 18.8 µM (≈ 7.79 µg/mL) | 9.4 µM (≈ 3.9 µg/mL) |  |  |  |  |  |  |  |  |  |  |  |  | 
COc1ccc(C(=O)/C=C/c2ccccc2)cc1 [4′-MC, 4′methoxy chalcone, reference compound] |  |  |  |  |  |  |  |  |  |  |  |  |  |  |  | no antibacterial effect at all |  |  | 
COc1ccc(C(=O)/C=C/c2cc(-c3cc(C)cc(C)c3)ccc2OCC[N+](C)(C)C)c(C[N+](C)(C)C)c1.[I-].[I-] [D-007] | 18.8 µM | 9.4 µM | 150 µM | 75 µM | 75 µM | 18.8 µM | 75 µM |  |  |  |  |  |  |  |  |  | bactericidal | primarily dependent on incubation time; also recorded: predominantly dependent on the time of incubation with the compound | 
Cc1cc(C)cc(-c2ccc(OCCN(C)C)c(/C=C/C(=O)c3ccccc3N)c2)c1 [SM009, (E)-1-(2-Amino-phenyl)-3-[4-(2-dimethylamino-ethoxy)-3′,5′-dimethyl-biphenyl-3-yl]-propenone] | 4.7 µM (≈ 1.95 µg/mL) | 4.7 µM (≈ 1.95 µg/mL) | 9.4 µM (≈ 3.9 µg/mL) | 4.7 µM (≈ 1.95 µg/mL) | 18.8 µM (≈ 7.79 µg/mL) | 4.7 µM (≈ 1.95 µg/mL) |  |  |  |  |  |  |  |  |  |  |  |  | 
CN(C)CCOc1ccc(-c2ccccc2)cc1/C=C/C(=O)c1cccc(CN(C)C)c1 [SM012, (E)-3-[4-(2-Dimethylamino-ethoxy)-biphenyl-3-yl]-1-(3-dimethylaminomethyl-phenyl)-propenone] | 18.8 µM (≈ 8.06 µg/mL) | 18.8 µM (≈ 8.06 µg/mL) | 18.8 µM (≈ 8.06 µg/mL) | 18.8 µM (≈ 8.06 µg/mL) | 18.8 µM (≈ 8.06 µg/mL) | 18.8 µM (≈ 8.06 µg/mL) | 37.5 µM (≈ 16.1 µg/mL) |  |  |  |  |  |  |  |  |  |  |  | 
CCCCN(CCCC)c1ccc(/C=C/C(=O)c2cccc(C[N+](C)(C)C)c2)cc1 [D-005, {3-[3-(4-Dibutylamino-phenyl)-acryloyl]-benzyl}-trimethyl-ammonium] | 4.7 µM | 4.7 µM | 18.8 µM | 9.4 µM | 37.5 µM | 9.4 µM | 75 µM |  |  |  | increased potency |  |  |  |  |  | bactericidal | primarily dependent on the concentration of the test compound | 
CCCCN(CCCC)c1ccc(/C=C/C(=O)c2cccc(CN(C)C)c2)cc1 [SM011, (E)-3-(4-Dibutylamino-phenyl)-1-(3-dimethylaminomethyl-phenyl)-propenone] | 9.4 µM (≈ 3.69 µg/mL) | 9.4 µM (≈ 3.69 µg/mL) | 9.4 µM (≈ 3.69 µg/mL) | 9.4 µM (≈ 3.69 µg/mL) | 18.8 µM (≈ 7.38 µg/mL) | 9.4 µM (≈ 3.69 µg/mL) |  |  |  |  |  |  |  |  |  |  |  |  | 
C=CC(C)(C)c1cc(/C=C/C(=O)c2ccc(O)cc2)c(OC)cc1O [LicA, Licochalcone A] | 37.5 µM (≈ 12.7 µg/mL) | 37.5 µM (≈ 12.7 µg/mL) | 37.5 µM (≈ 12.7 µg/mL) | 37.5 µM (≈ 12.7 µg/mL) | 75 µM (≈ 25.4 µg/mL) | 37.5 µM (≈ 12.7 µg/mL) |  |  |  |  | moderate bactericidal activity |  |  |  |  |  |  |  | only modest or no activity
COc1ccc(C(=O)/C=C/c2cc(-c3cc(C)cc(C)c3)ccc2OCCN(C)C)c(CN(C)C)c1 [SM013, (E)-3-[4-(2-Dimethylamino-ethoxy)-3′,5′-dimethyl-biphenyl-3-yl]-1-(2-dimethylaminomethyl-4-methoxy-phenyl)-propenone] | 4.7 µM (≈ 2.29 µg/mL) | 18.8 µM (≈ 9.15 µg/mL) | 4.7 µM (≈ 2.29 µg/mL) | 4.7 µM (≈ 2.29 µg/mL) | 4.7 µM (≈ 2.29 µg/mL) | 9.4 µM (≈ 4.57 µg/mL) | 75 µM (≈ 36.5 µg/mL) |  |  |  |  |  |  |  |  |  |  |  | 
Cc1cc(C)cc(-c2ccc(OCC[N+](C)(C)C)c(/C=C/C(=O)c3ccccc3N)c2)c1.[I-] [D-003, (2-{3-[3-(2-Amino-phenyl)-3-oxo-propenyl]-3′,5′-dimethyl-biphenyl-4-yloxy}-ethyl)-trimethyl-ammonium; iodide] | 4.7 µM | 2.4 µM | 4.7 µM | 4.7 µM | 18.8 µM | 4.7 µM | 18.8 µM | bactericidal | primarily dependent on the concentration of the test compound; also recorded: predominantly dependent on the concentration of the compound |  |  |  |  |  |  |  |  |  | high activity
